According to PubChem BioAssay AID1963449 (Molecular Pharmacology Branch, DTP, NCI, 2024):
pIC50: −log10 of the molar value.

Tested on: 596521-263-R-J1-PDC complex spheroid growth
Experiment: Anticancer human tumor 596521-263-R-J1-PDC patient-derived soft tissue sarcoma cell line growth inhibition [Asc]
Conditions: for pIC50: curve of first compound; for viability, T/C: stronger effect = lower value
Procedure: Multicellular complex tumor spheroid response to apoptosis pathway targeting inhibitors Alrizomadlin, Pelcitoclax, and Dasminapant in combination with a variety of drugs and investigational agents in selected tumor cell lines
The MDM2 inhibitor alrizomadlin, the Bcl-2/Bcl-xL inhibitor pelcitoclax, and the IAPs inhibitor dasminapant were evaluated both individually and in combination with standard of care and investigational anticancer small molecules within a complex spheroid model of solid tumors. . Complex spheroids include a stromal component modeled by human endothelial cells (HUVEC) and fibroblasts modeled by human mesenchymal stem cells (MSCs). The concentration ranges selected for each drug and investigational agent were based upon clinically achievable concentrations if the clinical Cmax of the agent was known.
Compounds. The drugs and investigational agents: alrizomadlin (APG-115; NSC831270), pelcitoclax (APG-1252; NSC835773), dasminapant (APG-1387;NSC834197), TAK-243 (NSC785004), copanlisib (NSC809693), olaparib (NSC753686), talazoparib (NSC767125), cobimetinib (NSC 768068), eltanexor (KPT-8602, NSC 794443), abemaciclib (NSC 768073), sotorasib (NSC818433), adagrasib (NSC 831453), MRTX-1133 (NSC 836407), Iadademestat (ORY1001, NSC 806812), and RMC-4630 (NSC839698), were obtained from the NCI Developmental Therapeutics Program Chemical Repository. The FDA-approved anticancer drug set is available from the Developmental Therapeutics Program at https://dtp.cancer.gov/organization/dscb/obtaining/available plates.htm. […] The stock solutions were prepared in dimethyl sulfoxide (DMSO, Sigma-Aldrich, St. Louis, MO, cat. D2650) at 800-fold the tested concentration and stored at -70 degrees C prior to their use. All drugs and investigational agents were tested over a range starting from a high concentration at or near the clinical Cmax and decreasing in half-log increments. If the clinical Cmax for an agent had not been determined, the highest concentration tested was 10 microM.
The patient-derived cancer (PDC) cell lines include five colon adenocarcinomas: 186277-243-T-J2-PDC, 616215-338-R-J1-PDC, 439559-082-T-J2-PDC, 463943-066-T-J2-PDC, and 519858-162-T-J1-PDC; three pancreatic carcinomas: 323965-272-R-J2-PDC, 521955-158-R6-J3-PDC, and 521955-158-R2-J5-PDC; two uterine sarcomas: 327498-152-R-J2-PDC and 993429-296-R-J1-PDC; two rhabdomyosarcomas: 755483-174-R-J1-PDC and 772245-204-R-J1-PDC; two soft tissue sarcomas: 126254-015-R-J1-PDC and 494315-158-R-J1-PDC; two malignant fibrous histiocytomas: 317291-083-R-J1-PDC and 596521-263-R-J1-PDC; two breast carcinomas: 171881-019-R-J1-PDC and 885512-296-R-J2-PDC; and one ovarian carcinoma: 6556581-035-R-J-PDC were obtained from the NCI PDMR, (https://pdmr.cancer.gov). The established cell lines HSSY-2 synovial sarcoma (RRID:CVCL 8719), SYO-1 synovial sarcoma (RRID:CVCL_7146), MPNST malignant peripheral neural sheath tumor were obtained from the Sloan Kettering Institute. The following established cell lines were purchased from the American Type Culture Collection (ATCC, Manassas, VA), Sor the received from the NCI repository:, PANC-1 pancreatic carcinoma (CRL-1469, RRID:CVCL_0480), OVCAR-5 ovarian carcinoma (RRID:CVCL_1628), OVCAR-8 ovarian carcinoma (RRID:CVCL_1629), , MCF-7 breast carcinoma (CRL-12584, RRID:CVCL_0031), MDA-MB-231 breast carcinoma (CRL-12532, RRID:CVCL_0062), NCI-H1876 small cell lung carcinoma (CRL-5902, RRID:CVCL_1503), NCI-H510A small cell lung carcinoma (HTB-184, RRID:CVCL_1565), NCI-H1417 (CRL-5869, RRID:CVCL_1469), and NCI-H196 small cell lung carcinoma (CRL-5823, RRID:CVCL_1509). Dr. Peter Houghton (Greehey Children's Cancer Research Institute, University of Texas Health Science Center, San Antonio, TX) provided Rh-18 rhabdomyosarcoma (RRID:CVCL_1659). Pooled donor human umbilical vein endothelial cells (HUVEC, Lonza, cat. CC-2519) and human mesenchymal stem cells (hMSC, Lonza, cat. PT-2501) were purchased from Lonza (Walkersville, MD).
Cell Culture. […]
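Further: spheroids exposed to compounds for 7 days.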

## O=C(c1ccc(F)c(F)c1Nc1ccc(I)cc1F)N1CC(O)([C@@H]2CCCCN2)C1 + CCN1C(C(=O)NC23CCC(C(=O)O)(CC2)CC3)C(c2cccc(Cl)c2F)C2(C(=O)Nc3cc(Cl)ccc32)C12CCCCC2
Second compound 0.00949 µM
  pIC50: 6.31
Second compound 0.03 µM
  pIC50: 6.33
Second compound 0.0949 µM
  pIC50: 6.38
Second compound 0.3 µM
  pIC50: 6.37
Second compound 0.949 µM
  pIC50: 6.45
Second compound 3 µM
  pIC50: 6.50
Second compound 0.00949 µM, first compound 0.00316 µM
  viability, T/C: 113%
Second compound 0.00949 µM, first compound 0.01 µM
  viability, T/C: 98.4%
Second compound 0.00949 µM, first compound 0.0316 µM
  viability, T/C: 112%
Second compound 0.00949 µM, first compound 0.1 µM
  viability, T/C: 83.6%
Second compound 0.00949 µM, first compound 0.316 µM
  viability, T/C: 58.4%
Second compound 0.00949 µM, first compound 1 µM
  viability, T/C: 38.8%
Second compound 0.03 µM, first compound 0.00316 µM
  viability, T/C: 104%
Second compound 0.03 µM, first compound 0.01 µM
  viability, T/C: 100%
Second compound 0.03 µM, first compound 0.0316 µM
  viability, T/C: 103%
Second compound 0.03 µM, first compound 0.1 µM
  viability, T/C: 81.9%
Second compound 0.03 µM, first compound 0.316 µM
  viability, T/C: 57.8%
Second compound 0.03 µM, first compound 1 µM
  viability, T/C: 36.4%
Second compound 0.0949 µM, first compound 0.00316 µM
  viability, T/C: 101%
Second compound 0.0949 µM, first compound 0.01 µM
  viability, T/C: 96.1%
Second compound 0.0949 µM, first compound 0.0316 µM
  viability, T/C: 112%
Second compound 0.0949 µM, first compound 0.1 µM
  viability, T/C: 84.3%
Second compound 0.0949 µM, first compound 0.316 µM
  viability, T/C: 56.4%
Second compound 0.0949 µM, first compound 1 µM
  viability, T/C: 34.3%
Second compound 0.3 µM, first compound 0.00316 µM
  viability, T/C: 119%
Second compound 0.3 µM, first compound 0.01 µM
  viability, T/C: 94.9%
Second compound 0.3 µM, first compound 0.0316 µM
  viability, T/C: 101%
Second compound 0.3 µM, first compound 0.1 µM
  viability, T/C: 79.1%
Second compound 0.3 µM, first compound 0.316 µM
  viability, T/C: 51.4%
Second compound 0.3 µM, first compound 1 µM
  viability, T/C: 37%
Second compound 0.949 µM, first compound 0.00316 µM
  viability, T/C: 97.8%
Second compound 0.949 µM, first compound 0.01 µM
  viability, T/C: 99.8%
Second compound 0.949 µM, first compound 0.0316 µM
  viability, T/C: 98.2%
Second compound 0.949 µM, first compound 0.1 µM
  viability, T/C: 82.9%
Second compound 0.949 µM, first compound 0.316 µM
  viability, T/C: 51.4%
Second compound 0.949 µM, first compound 1 µM
  viability, T/C: 39.7%
Second compound 3 µM, first compound 0.00316 µM
  viability, T/C: 97.1%
Second compound 3 µM, first compound 0.01 µM
  viability, T/C: 84.9%
Second compound 3 µM, first compound 0.0316 µM
  viability, T/C: 91.5%
Second compound 3 µM, first compound 0.1 µM
  viability, T/C: 65.6%
Second compound 3 µM, first compound 0.316 µM
  viability, T/C: 53.4%
Second compound 3 µM, first compound 1 µM
  viability, T/C: 44.5%

## COc1c(OCCCN2CCOCC2)ccc2c3n(c(=NC(=O)c4cnc(N)nc4)nc12)CCN3 + Cc1c(S(C)(=O)=O)c(-c2cc(F)cc(N3CCN(c4ccc(NS(=O)(=O)c5ccc(NC(CCN6CCC(C(=O)OCCCP(=O)(O)O)CC6)CSc6ccccc6)c(S(=O)(=O)C(F)(F)F)c5)cc4)CC3)c2)c(-c2ccc(Cl)cc2)n1C(C)C
Second compound 0.0316 µM
  pIC50: 6.68
Second compound 0.1 µM
  pIC50: 6.85
Second compound 0.316 µM
  pIC50: 6.86
Second compound 1 µM
  pIC50: 7.13
Second compound 3.16 µM
  pIC50: 7.26
Second compound 10 µM
  pIC50: 8.09
Second compound 0.0316 µM, first compound 0.00316 µM
  viability, T/C: 95.5%
Second compound 0.0316 µM, first compound 0.01 µM
  viability, T/C: 90.8%
Second compound 0.0316 µM, first compound 0.0316 µM
  viability, T/C: 79.2%
Second compound 0.0316 µM, first compound 0.1 µM
  viability, T/C: 67.3%
Second compound 0.0316 µM, first compound 0.316 µM
  viability, T/C: 39.9%
Second compound 0.0316 µM, first compound 1 µM
  viability, T/C: 29.4%
Second compound 0.1 µM, first compound 0.00316 µM
  viability, T/C: 89.6%
Second compound 0.1 µM, first compound 0.01 µM
  viability, T/C: 92.5%
Second compound 0.1 µM, first compound 0.0316 µM
  viability, T/C: 84.2%
Second compound 0.1 µM, first compound 0.1 µM
  viability, T/C: 54.6%
Second compound 0.1 µM, first compound 0.316 µM
  viability, T/C: 37.6%
Second compound 0.1 µM, first compound 1 µM
  viability, T/C: 25.6%
Second compound 0.316 µM, first compound 0.00316 µM
  viability, T/C: 85.6%
Second compound 0.316 µM, first compound 0.01 µM
  viability, T/C: 84.2%
Second compound 0.316 µM, first compound 0.0316 µM
  viability, T/C: 65.9%
Second compound 0.316 µM, first compound 0.1 µM
  viability, T/C: 58.1%
Second compound 0.316 µM, first compound 0.316 µM
  viability, T/C: 36.1%
Second compound 0.316 µM, first compound 1 µM
  viability, T/C: 25.4%
Second compound 1 µM, first compound 0.00316 µM
  viability, T/C: 91.6%
Second compound 1 µM, first compound 0.01 µM
  viability, T/C: 76.1%
Second compound 1 µM, first compound 0.0316 µM
  viability, T/C: 62%
Second compound 1 µM, first compound 0.1 µM
  viability, T/C: 47%
Second compound 1 µM, first compound 0.316 µM
  viability, T/C: 31.3%
Second compound 1 µM, first compound 1 µM
  viability, T/C: 24.9%
Second compound 3.16 µM, first compound 0.00316 µM
  viability, T/C: 61.5%
Second compound 3.16 µM, first compound 0.01 µM
  viability, T/C: 62.9%
Second compound 3.16 µM, first compound 0.0316 µM
  viability, T/C: 55.9%
Second compound 3.16 µM, first compound 0.1 µM
  viability, T/C: 43.1%
Second compound 3.16 µM, first compound 0.316 µM
  viability, T/C: 27.1%
Second compound 3.16 µM, first compound 1 µM
  viability, T/C: 18.5%
Second compound 10 µM, first compound 0.00316 µM
  viability, T/C: 52.4%
Second compound 10 µM, first compound 0.01 µM
  viability, T/C: 50%
Second compound 10 µM, first compound 0.0316 µM
  viability, T/C: 42.9%
Second compound 10 µM, first compound 0.1 µM
  viability, T/C: 41.2%
Second compound 10 µM, first compound 0.316 µM
  viability, T/C: 24.8%
Second compound 10 µM, first compound 1 µM
  viability, T/C: 13.4%
